The values below are quoted from earlier work in patent US20090035370A1, “DOSAGE FORM AND METHOD OF USE” (DRUGTECH CORPORATION, priority 2007, published 2009).

Each structure is given as a SMILES string. Where two headings read alike, the source gives them in different places.

The target of series [1] is T1, D2 receptor (Homo sapiens, UniProt P14416). Particulars: patients receiving 300-600 mg/day.
Series [2] deals with T1, D2 receptor. Particulars: PET.
The conditions of series [3]: administered orally.
Series [4] has as its target T1, D2 receptor.

T1 sequence (P14416 whole entry): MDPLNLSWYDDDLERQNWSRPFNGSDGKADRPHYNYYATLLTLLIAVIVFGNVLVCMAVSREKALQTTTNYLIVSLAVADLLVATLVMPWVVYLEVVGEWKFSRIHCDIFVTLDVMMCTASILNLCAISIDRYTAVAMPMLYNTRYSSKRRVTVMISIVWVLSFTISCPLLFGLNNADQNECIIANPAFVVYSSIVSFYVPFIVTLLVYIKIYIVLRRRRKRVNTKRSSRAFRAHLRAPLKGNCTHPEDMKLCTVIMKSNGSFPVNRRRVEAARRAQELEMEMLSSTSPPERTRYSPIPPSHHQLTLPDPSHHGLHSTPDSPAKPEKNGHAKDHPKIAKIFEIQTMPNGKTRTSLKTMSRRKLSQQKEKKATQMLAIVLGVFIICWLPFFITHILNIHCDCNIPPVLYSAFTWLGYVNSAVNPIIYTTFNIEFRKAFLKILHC

In the case of `OCCOCCN1CCN(C2=Nc3ccccc3Sc3ccccc32)CC1` [Quetiapine], the D2 occupancy entry is recorded as “less than 20%” in series [1] (12 hours after receiving a dose); roughly 60% in series [1] (at 2 hours); 58-62% in series [2] (2 to 3 hours after a single dose); 0-27% in series [2] (12 hours after the last dose); 58-64% in series [4] (2-3 hours after a dose); 0-27% in series [4] (by the end of a 12-hour dosing interval). Besides, the antipsychotic efficacy entry (Kapur et al. 2000) is on record as “effective antipsychotic”. Where the note is “patients with a first episode of schizophrenia, single daily dose”, the response to treatment result is listed as “responded to treatment”. Further, the “time to peak plasma level” value in series [3] is no more than 1.5 h.
